For one data set, the system named is 3T3 SV-40 cells. Put plainly: Suppression of proliferation of mouse fibroblasts transformed by SV-40 virus (3T3 SV-40), Trypan blue living cell count. Format: cell-based. The conditions noted are these: for Rate of suppression (%): 3T3 SV-40 cells, 5 μg/ml. On the procedure:
(§1) The activity of one of the present substances, 3-dansyloxyestradiol-17β-[[4-[p-{bis(2-chloroethyl)amino}phenyl]butyryloxy]]acetate in suppressing the proliferation of (1) the fibroblasts of mouse (3T3) and (2) transformed fibroblasts of mouse by SV-40 virus (3T3 SV-40) was studied by in vitro tests as follows:
(§2) Into a culture medium consisting of 90% by weight of DALBECCO MEM and 10% of bovine foetus serum, a solution of the test substance in dimethylsulfoxide at a rate of 5 μg/ml was added (dimethylsulfoxide being 1% of the culture medium). After adjusting the pH of the three culture media respectively to 6.5, 7.0 and 7.8, the target cells were implanted into each culture medium at a rate of 2×10^4 cells/ml, and the culture media were incubated at 37° C. in an atmosphere of 5% of carbon dioxide for 3 and 6 days. After ending the incubation, the number of living cells which were not dyed with Trypan blue enumerated in the cultured medium to calculate the rate of suppression of the proliferation of the fibroblasts as follows: [formula] where Nc is the number of the living fibroblasts in control group and Nt is the number of living fibroblasts in the test group both in the unit area.
(§3) The activity of one of the present substance, 3-dansyloxyestradiol-17β-[[2-[p-{bis(2-chloroethyl)amino}phenyl]acetoxy]]acetate in suppressing the proliferation of mouse fibroblasts (3T3) and SV-40 virus-transformed fibroblasts (3T3 SV-40) was examined by the same method as in Example 4 except for (1) the days of incubation of 3 and 5 days instead of 3 and 6 days in Example 4 and (2) the pH of the culture medium of 6.7 instead of 6.7, 7.0 and 7.8 in Example 4.

Data set [1] deals with 3T3 SV-40 cells vs 3T3 cells. Briefly: Intaking of test substance by 3T3 SV-40 cells compared to 3T3 cells, fluorescence microscope. Format: cell-based, mouse. On the procedure: Intaking of one of the present substances, 3-dansyloxyestradiol-17β-[[4-[p-{bis(2-chloroethyl)amino}phenyl]butyryloxy]]acetate, by mouse fibroblasts (3T3) and mouse transformed fibroblasts by SV-40 virus (3T3 SV-40) was examined with a fluorescence microscope under the following conditions:
Concentration of the test substance: 10 and 50 μg/ml
pH of culture medium: 6.5 and 7.8
Number of implanted cells: 2×10^4 cells/ml
Temperature and days of incubation: 37° C. for 5 days
Fixation: by aqueous 2.5% glutaraldehyde phosphate buffer for 90 minutes
Examination: by using a microscope (made by Olympus, BHS-RFK) with an exciting filter UGI and auxiliary absorption filter Y-475.
In the similar manner to that in Example 6, intaking of one of the present substances, 3-dansyloxyestradiol-17β-[[2-[p-{bis(2-chloroethyl)amino}phenyl]acetoxy]]acetate by mouse fibroblast (3T3) and mouse transformed fibroblast by SV-40 virus (3T3 SV-40) was studied.

A further data set has as its system 3T3 cells. Briefly: Suppression of proliferation of mouse fibroblasts (3T3), Trypan blue living cell count. The format is cell-based. The note with it: 5 μg/ml. On the procedure:
as §1, §2, §3

Data set [2] in a line: Fluorescent determination (emission wave length). The format is physicochemical. The note with it: for emitted light wave length: ethyl acetate. From the text:
As a result of fluorescent determination at a wave length of excitation light of 356 nm, the emitted light of 520 nm in wave length with ethyl acetate was observed.
As a result of fluorescent determination at a wave length of excitation light of 357 nm, the emitted light of 525 nm in wave length of this substance with ethyl acetate was observed.
Onto a chromatographic column prepared by filling 400 g of silica gel (made by Merck Co. under the name of Art 7734) into a glass tube of 36 mm in inner diameter and 865 mm in length by using chloroform, a solution of 12 g of the crude product dissolved in 50 ml of chloroform was charged, and the absorbed product was subjected to elution by a flow of chloroform at a flow rate of 7 ml/min, thereby 1400 ml of a fraction showing one spot on the chromatogram were obtained. By condensing the fraction, 9 g of wet product were obtained. The wet product was dissolved in 30 ml of chloroform, and after adding 50 ml of hexane to the prepared solution, the mixture was cooled while stirring thereof, however, since no crystal was precipitated therefrom, the solvent was distilled off therefrom by using an evaporator and the residue was dried under vacuum to obtain 7 g of a solid, fluorescent substance in a yield of 68.2%. […] Its emission fluorescence was 521 nm by the excitation light of 358 nm.

The next data set deals with mouse. The note with it: for reference; cited from earlier work.
In a further data set the test system is FLOW 4000 cell. Put plainly: Suppression of proliferation of human normal renal cells (FLOW 4000). The format is cell-based. The conditions noted are these: 5 μg/ml, 37° C. On the procedure:
as §2
(§4) The activity of one of the present substance, 3-dansyloxyestradiol-17β-[[4-[p-{bis(2-chloroethyl)amino}phenyl]butyryloxy]]acetate, in suppressing the proliferation of (1) human nomal renal cells (FLOW 4000) and (2) human renal cancer cells (RC) was examined as follows:
(§5) Into the same culture medium as in Example 4, a solution of the test substance dissolved in dimethylsulfoxide was added at a rate of 5 μg/ml (dimethylsulfoxide being 1% of the culture medium), and after adjusting the three culture media respectively to pH of 6.5, 7.0 and 7.8, the cells were implanted into each culture medium at a rate of 2×10^4 cells/ml, and the culture media implanted were incubated for 6 days at 37° C. in an atmosphere of 5% of carbon dioxide. The rate of suppression of the proliferation of the implanted cells was calculated by the same formula as in Example 4, the results being shown in Table 2.

Data set [3] deals with human renal cancer cells (RC) vs normal human renal cells (FLOW 4000). Briefly: Intaking of test substance by RC cells compared to FLOW 4000 cells, fluorescence microscope. The format is cell-based. The conditions noted are these: Example 8; 37° and 40° C. incubation. How it is done:
In the similar manner to that in Example 7, intaking of one of the present substances, 3-dansyloxyestradiol-17β-[[4-[p-{bis(2-chloroethyl)amino}phenyl]butyryloxy]]acetate by the normal human renal cells (FLOW 4000) and the human renal cancer cells (RC) was examined by using the same fluorescence microscope as in Example 7. The incubation of the implanted cells was carried out at 37° and 40° C.

The subject of a further data set is RC cell. Put plainly: Suppression of proliferation of human renal cancer cells (RC). Format: cell-based. The note with it: 5 μg/ml, 37° C.; for Rate of suppression (%): RC cell. How it is done:
as §2, §4, §5

Where [4] appears, read: pH 6.7, 3 days, 37° C. (Example 6).
The mark [5] stands for this setting: pH 6.7, 5 days, 37° C. (Example 6).

Take `CN(C)c1cccc2c(S(=O)(=O)Oc3ccc4c(c3)CC[C@@H]3[C@@H]4CC[C@]4(C)[C@@H](OC(=O)COC(=O)Cc5ccc(N(CCCl)CCCl)cc5)CC[C@@H]34)cccc12` [3-Dansyloxyestradiol-17β-[[2-[p-{bis(2-chloroethyl)amino}phenyl]acetoxy]]acetate]: the “Rate of suppression (%)” value in the data set with 3T3 SV-40 cells (setting [4]) is reported as 55.72%; with 3T3 SV-40 cells (setting [5]), 85.86%; with 3T3 cells (setting [4]), 25.24%; with 3T3 cells (setting [5]), 53.28%. Also, in data set [1] (Example 9, FIG. 8: 5 μg/ml, pH 6.5, 4 days), the “Intaking of the test substance by 3T3 SV-40 compared to 3T3” value is “remarkable as compared to that by 3T3”.

With `CN(C)c1cccc2c(S(=O)(=O)Oc3ccc4c(c3)CC[C@@H]3[C@@H]4CC[C@]4(C)[C@H](OC(=O)COC(=O)CCCc5ccc(N(CCCl)CCCl)cc5)CC[C@@H]34)cccc12` [3-dansyloxyestradiol-17α-[[4-[p-{bis(2-chloroethyl)amino}phenyl]butyryloxy]]acetate], in data set [2] (excitation light 357 nm), the “emitted light wave length” value was 525 nm.

Take `O=C(O)CCCc1ccc(N(CCCl)CCCl)cc1` [chlorambucil]: in the data set with mouse, the LD50 is 20 mg/kg body weight.

In the case of `CN(C)c1cccc2c(S(=O)(=O)Oc3ccc4c(c3)CC[C@@H]3[C@@H]4CC[C@]4(C)[C@@H](OC(=O)COC(=O)CCCc5ccc(N(CCCl)CCCl)cc5)CC[C@@H]34)cccc12` [3-dansyloxyestradiol-17β-[[4-[p-{bis(2-chloroethyl)amino}phenyl]butyryloxy]]acetate], the “Rate of suppression (%)” value in the data set with 3T3 SV-40 cells (pH 6.5, 3 days, 37° C.) is on record as 64.19%; in the data set on 3T3 SV-40 cells (pH 6.5, 6 days, 37° C.), 91.60%; in the data set with 3T3 SV-40 cells (pH 7.0, 3 days, 37° C.), 55.80%; with 3T3 SV-40 cells (pH 7.0, 6 days, 37° C.), 85.88%; in the data set on 3T3 SV-40 cells (pH 7.8, 3 days, 37° C.), 31.60%; in the data set with 3T3 SV-40 cells (pH 7.8, 6 days, 37° C.) it was 38.80%. The “Rate of suppression (%)” value in the data set with FLOW 4000 cell (pH 6.5, 6 days) is given as 27.83%; in the data set with FLOW 4000 cell (pH 7.0, 6 days), 14.00%; in the data set with FLOW 4000 cell (pH 7.8, 6 days), -1.10%; in the data set with RC cell (pH 6.5, 6 days) it was 54.54%; in the data set with RC cell (pH 7.0, 6 days), 46.68%; in the data set on RC cell (pH 7.8, 6 days), 22.39%. Further, the “Rate of suppression (%)” value in the data set with 3T3 cells (pH 6.5, 3 days, 37° C.) was 16.8%; in the data set on 3T3 cells (pH 6.5, 6 days, 37° C.), 14.76%; with 3T3 cells (pH 7.0, 3 days, 37° C.), 6.45%; in the data set on 3T3 cells (pH 7.0, 6 days, 37° C.), 20.03%; in the data set on 3T3 cells (pH 7.8, 3 days, 37° C.) it was 7.87%; in the data set on 3T3 cells (pH 7.8, 6 days, 37° C.), 11.30%. For the same molecule, the “activity of suppressing the proliferation of transformed cells by SV-40 virus (in words)” value in the data set with 3T3 SV-40 cells (Example 4, pH range of from 6.5 to 7.8, 5 μg/ml) is recorded as “clearly showed an activity of suppressing the proliferation of transformed cells by SV-40 virus”. In addition, the “emitted light wave length” value in data set [2] (excitation light 356 nm) stood at 520 nm. Further, the “Intaking of the test substance by RC cells compared to FLOW 4000 cells” value in data set [3] was “remarkable as compared to that by the normal human cells (FLOW 4000) at both 37° and 40 °C”. The “Intaking of the test substance by 3T3 SV-40 cells compared to 3T3 cells” value in data set [1] (Example 7, 10 and 50 μg/ml, pH 6.5 and 7.8, 37° C., 5 days) is given as “remarkably recognized as compared to that by 3T3 cells”. In addition, the “suppression of the proliferation of human renal cancer cells (RC) (in words)” value in the data set on RC cell (Example 5, 6 days) is “clearly suppressed the proliferation of the human renal cancer cells (RC)”.

As for `CN(C)c1cccc2c(S(=O)(=O)Oc3ccc4c(c3)CC[C@@H]3[C@@H]4CC[C@]4(C)[C@@H](OC(=O)COC(=O)c5ccc(N(CCCl)CCCl)cc5)CC[C@@H]34)cccc12` [3-dansyloxyestradiol-17β-[[1-[p-{bis(2-chloroethyl)amino}phenyl]carbonyloxy]]acetate], the emission fluorescence in data set [2] (excitation light 358 nm) came to 521 nm.

(Values after patent US4938897A (Kureha Kagaku Kogyo Kabushiki Kaisha, priority 1985, dated 1990).)
